The text below walks through data of US20100261706A1, “SUBSTITUTED TETRACYCLIC 1H-INDENO [1,2-B]PYRIDINE-2(5H)-ONE ANALOGS THEREOF AND USES THEREOF” (INOTEK PHARMACEUTICALS CORPORATION, priority 2008, published 2010).

The target of one assay is T1, PARP-1 enzyme (Homo sapiens, UniProt P09874).
T1 construct: purchased Trevigen, Gaithersburg, Md
Nature of the assay: Purified PARP-1 enzyme inhibition assay (Trevigen kit, 96 well ELISA plates). The assay is classed as biochemical. Here is the method: Effect of Tetracyclic 1H-indeno[1,2-b]pyridine-2(5H)-one analogs on PARP Activity in purified PARP-1 enzyme assay
The potency of inhibition on purified PARP-1 enzyme was subsequently determined for selected compounds, and the potency was compared with INO-1001. The assay was performed in 96 well ELISA plates according to instructions provided with a commercially available PARP-1 inhibition assay kit (Trevigen, Gaithersburg, Md.). Briefly, wells were coated with 1 mg/ml histone (50 μl/well) at 4° C. overnight. Plates were then washed four times with PBS and then blocked by adding 50 μl Strep-Diluent (supplied with the kit). After incubation (1 h, 25° C.), the plates were washed four times with PBS. Appropriate dilutions of compound was combined with 2×PARP cocktail (1.95 mM NAD^+, 50 μM biotinylated NAD^+ in 50 mM TRIS pH 8.0, 25 mM MgCl2) and high specific activity PARP enzyme (both were supplied with the kit) in a volume of 50 μl. The reaction was allowed to proceed for 30 min at room temperature. After 4 washes in PBS, incorporated biotin was detected by peroxidase-conjugated streptavidin (1:500 dilution) and TACS Sapphire substrate. EC50 and IC50 values were determined from a dose-response curve.

In another assay the target is T2, PARP (Mus musculus, UniProt P11103).
T2 construct: PARP Activity in Cultured Macrophages, Using a Whole-Cell Based Assay; endogenous in cells; host or cells: murine RAW macrophages (ATCC)
T2 sequence (P11103 whole entry): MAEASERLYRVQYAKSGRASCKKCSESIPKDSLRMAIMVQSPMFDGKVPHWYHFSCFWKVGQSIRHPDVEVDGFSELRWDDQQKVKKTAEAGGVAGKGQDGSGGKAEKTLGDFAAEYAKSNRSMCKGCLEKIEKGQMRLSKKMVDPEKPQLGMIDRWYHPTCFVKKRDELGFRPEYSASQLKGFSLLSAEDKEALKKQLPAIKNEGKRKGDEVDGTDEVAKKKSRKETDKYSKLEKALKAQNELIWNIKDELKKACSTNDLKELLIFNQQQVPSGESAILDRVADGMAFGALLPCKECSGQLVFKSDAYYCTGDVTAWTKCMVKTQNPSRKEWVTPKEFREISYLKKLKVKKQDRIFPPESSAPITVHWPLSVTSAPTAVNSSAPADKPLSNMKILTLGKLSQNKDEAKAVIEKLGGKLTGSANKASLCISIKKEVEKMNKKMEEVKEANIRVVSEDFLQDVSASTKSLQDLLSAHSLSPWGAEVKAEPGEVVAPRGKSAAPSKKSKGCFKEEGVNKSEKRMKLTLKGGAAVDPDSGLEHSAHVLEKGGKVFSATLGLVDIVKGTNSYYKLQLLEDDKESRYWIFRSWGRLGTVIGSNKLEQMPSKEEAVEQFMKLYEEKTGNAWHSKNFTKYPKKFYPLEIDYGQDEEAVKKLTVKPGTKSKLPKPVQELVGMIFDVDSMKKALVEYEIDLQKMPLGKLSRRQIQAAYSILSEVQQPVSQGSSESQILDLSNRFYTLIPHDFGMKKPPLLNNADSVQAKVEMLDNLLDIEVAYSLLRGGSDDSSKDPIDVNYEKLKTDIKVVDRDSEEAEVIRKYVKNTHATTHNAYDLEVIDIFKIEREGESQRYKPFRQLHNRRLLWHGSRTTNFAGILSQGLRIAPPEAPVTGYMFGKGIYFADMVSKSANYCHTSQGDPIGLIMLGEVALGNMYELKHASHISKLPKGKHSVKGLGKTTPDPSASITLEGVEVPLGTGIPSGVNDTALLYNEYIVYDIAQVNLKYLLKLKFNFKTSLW
The experiment in a line: PARP activity in cultured macrophages, whole-cell based assay (3H-NAD+ incorporation after hydrogen peroxide). The settings on record: murine RAW macrophages, 1 hour pretreatment, hydrogen peroxide 0.5 mM. On the procedure: Effect of Tetracyclic 1H-indeno[1,2-b]pyridine-2(511)-one Analogs on PARP Activity in Cultured Macrophages, Using a Whole-Cell Based Assay
The murine RAW macrophages (ATCC, American Type Culture Collection, Manassas, Va.) were grown in […] (Invitrogen Life Technologies; Carlsbad, Calif.) medium supplemented with 10% heat-inactivated FBS, 2 mM L-glutamine, and 100 U/ml of penicillin and streptomycin. Cells, between passages 5 and 15, were seeded at a density of 250,000 cells/well in 12 well plates and allowed to grow 48 hours before use. Growth medium was changed on the day of use. Cells were treated with a tetracyclic 1H-indeno[1,2-b]pyridine-2(5H)-one analog diluted in a growth medium supplemented with 10% fetal bovine serum (FBS) for 1 hour prior to the addition of hydrogen peroxide (0.5 mM) for a further 25 minutes. For the measurement of PARP activity, media was removed and replaced with 0.5 ml of the assay buffer (56 mM HEPES-pH 7.5, 28 mM KCl, 28 mM NaCl, 2 mM MgCl2, 0.01% digitonin, and 0.5 μCi/ml of ^3H-NAD^+) for 20 minutes. After aspirating the assay buffer, cells were lysed and transferred to eppendorf tubes containing 250 μl of 50% ice-cold trichloroacetic acid (TCA), which were then placed at 4° C. for 4 hours. Samples were centrifuged at 10,000 g for 10 minutes and supernatant removed. The pellets were washed twice with 500 μl of ice-cold 5% w/v TCA. The pellets were then solubilized in 250 μl of NaOH (0.1 M) containing 2% SDS overnight at 37° C. and the PARP activity was then determined by measuring the radioactivity incorporated using a Wallac scintillation counter. The solubilized protein (250 μl) was mixed with 5 ml of scintillation fluid (ScintiSafe Plus, Fisher Scientific) before being counted for 3 minutes. EC50 values were determined from a dose-response curve.

The structures appear in SMILES notation. pEC50, pIC50: −log10 of the molar value. Structures can show the parent of a compound that is named as a salt.

T1 sequence (P09874 whole entry): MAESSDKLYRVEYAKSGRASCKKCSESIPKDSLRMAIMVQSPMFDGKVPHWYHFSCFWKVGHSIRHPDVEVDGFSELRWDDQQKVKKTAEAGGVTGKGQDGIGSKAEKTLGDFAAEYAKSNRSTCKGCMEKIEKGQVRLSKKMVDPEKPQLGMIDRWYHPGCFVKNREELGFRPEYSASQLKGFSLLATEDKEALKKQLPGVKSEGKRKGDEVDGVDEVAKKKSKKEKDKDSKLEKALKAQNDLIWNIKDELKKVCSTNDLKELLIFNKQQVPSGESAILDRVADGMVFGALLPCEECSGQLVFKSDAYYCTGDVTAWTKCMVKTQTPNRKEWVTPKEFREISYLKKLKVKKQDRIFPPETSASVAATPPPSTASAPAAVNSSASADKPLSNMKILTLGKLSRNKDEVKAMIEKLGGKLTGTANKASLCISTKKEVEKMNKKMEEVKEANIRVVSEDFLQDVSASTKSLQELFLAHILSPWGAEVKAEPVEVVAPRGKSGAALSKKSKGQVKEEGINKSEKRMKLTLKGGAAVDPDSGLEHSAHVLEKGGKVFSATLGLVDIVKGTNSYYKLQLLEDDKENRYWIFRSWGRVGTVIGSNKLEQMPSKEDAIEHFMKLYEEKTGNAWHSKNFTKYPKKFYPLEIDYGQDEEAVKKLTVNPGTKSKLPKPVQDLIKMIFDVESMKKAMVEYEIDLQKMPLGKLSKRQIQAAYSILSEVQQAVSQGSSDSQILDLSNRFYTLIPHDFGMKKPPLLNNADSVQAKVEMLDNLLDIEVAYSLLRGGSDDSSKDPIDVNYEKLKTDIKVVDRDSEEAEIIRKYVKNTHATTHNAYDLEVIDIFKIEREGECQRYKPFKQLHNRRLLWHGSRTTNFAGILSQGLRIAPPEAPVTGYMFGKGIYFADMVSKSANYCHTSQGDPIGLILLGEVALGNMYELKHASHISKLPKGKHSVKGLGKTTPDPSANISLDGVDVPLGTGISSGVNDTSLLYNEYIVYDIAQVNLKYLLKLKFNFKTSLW

What is called pIC50 is the negative decadic logarithm of the IC50, by convention in mol/L. Lower therefore signals a large IC50. One may read the pEC50 as the negative decadic logarithm of the EC50, by convention in mol/L. For the compound `O=c1[nH]c2c(c3c1CCCC3)Cc1c(CN3CCC(O)CC3)cccc1-2` [Example 1, 10-((4-hydroxypiperidin-1-yl)methyl)-3,4,6,11-tetrahydro-1H-indeno[1,2-c]isoquinolin-5(2H)-one], the pIC50 on PARP-1 enzyme is 8.42. The pEC50 on PARP was 7.95. In turn, `O=c1[nH]c2c(c3c1CCCC3)Cc1c(CN3CCCCC3)cccc1-2` [Example 2, 10-(piperidin-1-ylmethyl)-3,4,6,11-tetrahydro-1H-indeno[1,2-c]isoquinolin-5(2H)-one] gave a pIC50 against PARP-1 enzyme of 8.29. In addition, the pEC50 on PARP is 8.82. On PARP-1 enzyme, `O=c1[nH]c2c(c3c1CCCC3)Cc1c(CN3CCC(O)CC3)cccc1-2` [Example 3, 10-((4-hydroxypiperidin-1-yl)methyl)-3,4,6,11-tetrahydro-1H-indeno[1,2-c]isoquinolin-5(2H)-one hydrochloride] had a pIC50 of 7.95. At PARP-1 enzyme, `CCOC1CCN(Cc2cccc3c2Cc2c-3[nH]c(=O)c3c2CCCC3)CC1` [Example 9, 10-((4-ethoxypiperidin-1-yl)methyl)-3,4,6,11-tetrahydro-1H-indeno[1,2-c]isoquinolin-5(2H)-one] had a pIC50 of 7.03. Besides, on PARP, the pEC50 was 7.90. `CC1CCN(Cc2cccc3c2Cc2c-3[nH]c(=O)c3c2CCCC3)CC1` [Example 20, 10-((4-methylpiperidin-1-yl)methyl)-3,4,6,11-tetrahydro-1H-indeno[1,2-c]isoquinolin-5(2H)-one mesylate] gave a pIC50 at PARP-1 enzyme of 8.28. The pEC50 at PARP was 8.39. `O=c1[nH]c2c(c3c1CCCC3)Cc1c(CN3CCC(N4CCCC4)CC3)cccc1-2` [Example 23, 10-((4-(pyrrolidin-1-yl)piperidin-1-yl)methyl)-3,4,6,11-tetrahydro-1H-indeno[1,2-c]isoquinolin-5(2H)-one]: the pIC50 against PARP-1 enzyme is 7.90. Besides, the negative-log EC50 (pEC50) at PARP is 7.68. The compound `O=c1[nH]c2c(c3c1CCCC3)Cc1c(CNC3CCCC3)cccc1-2` [Example 26, 10-((cyclopentylamino)methyl)-3,4,6,11-tetrahydro-1H-indeno[1,2-c]isoquinolin-5(2H)-one] had a pIC50 on PARP-1 enzyme of 8.47. In addition, the pEC50 on PARP is 8.30. As for `C[C@@H]1CN(c2cccc3c2Cc2c-3[nH]c(=O)c3c2CCCC3)C[C@H](C)O1` [Example 32, 10-(2,6-dimethylmorpholino)-3,4,6,11-tetrahydro-1H-indeno[1,2-c]isoquinolin-5(2H)-one], the pIC50 at PARP-1 enzyme was 7.64. Besides, at PARP, the pEC50 was 7.00.

For `COCCNCc1ccc2c(c1)Cc1c-2[nH]c(=O)c2c1CCCC2` [Example 36, 9-((2-methoxyethylamino)methyl)-3,4,6,11-tetrahydro-1H-indeno[1,2-c]isoquinolin-5(2H)-one], the pIC50 on PARP-1 enzyme was 8.05. At PARP, the pEC50 is 7.30. Compound `CCCN1CCN(c2cccc3c2Cc2c-3[nH]c(=O)c3c2CCCC3)CC1` [Example 41, 10-(4-propylpiperazin-1-yl)-3,4,6,11-tetrahydro-1H-indeno[1,2-c]isoquinolin-5(2H)-one] gave a pIC50 against PARP-1 enzyme of 8.20. Moreover, on PARP, the pEC50 is 7.35. On PARP-1 enzyme, `COCCN1CCN(c2cccc3c2Cc2c-3[nH]c(=O)c3c2CCCC3)CC1` [Example 43, 10-(4-(2-methoxyethyl)piperazin-1-yl)-3,4,6,11-tetrahydro-1H-indeno[1,2-c]isoquinolin-5(2H)-one] showed a pIC50 of 8.09. For the same compound, on PARP, the pEC50 was 8.05. Turning to `O=c1[nH]c2c(c3c1CCCC3)Cc1cc(CNCCN3CCOCC3)ccc1-2` [Example 45, 9-((2-morpholinoethylamino)methyl)-3,4,6,11-tetrahydro-1H-indeno[1,2-c]isoquinolin-5(2H)-one], the pIC50 against PARP-1 enzyme is 8.26. In addition, the pEC50 on PARP was 7.60. As for `O=c1[nH]c2c(c3ccsc13)Cc1c(CNC3CCCC3)cccc1-2` [Example 48, 9-((cyclopentylamino)methyl)-5,10-dihydro-4H-indeno[1,2-b]thieno[3,2-d]pyridin-4-one], the pIC50 on PARP-1 enzyme was 7.57. On PARP, the pEC50 was 8.00. At PARP-1 enzyme, `COCCN1CCN(c2cccc3c2Cc2c-3[nH]c(=O)c3cccnc23)CC1` [Example 49, 10-(4-(2-methoxyethyl)piperazin-1-yl)-6,11-dihydro-5H-indeno[1,2-h][1,6]naphthyridin-5-one] showed a negative-log IC50 (pIC50) of 7.25. Further, the pEC50 on PARP is 7.64. The compound `O=c1[nH]c2c(c3c1CCCC3)Cc1c(CNC3(CO)CCCC3)cccc1-2` [Example 50, 10-((1-(hydroxymethyl)cyclopentylamino)methyl)-3,4,6,11-tetrahydro-1H-indeno[1,2-c]isoquinolin-5(2H)-one] had a pIC50 against PARP-1 enzyme of 8.20. Also, the pEC50 at PARP is 8.30.

Compound `CC(C)(O)C(=O)Nc1cccc2c1Cc1c-2[nH]c(=O)c2c1CCCC2` [Example 51, 2-hydroxy-2-methyl-N-(5-oxo-2,3,4,5,6,11-hexahydro-1H-indeno[1,2-c]isoquinolin-10-yl)propanamide] had a pIC50 against PARP-1 enzyme of less than 6.60. Besides, the pEC50 at PARP was 7.23. Regarding `CSCCC(=O)Nc1cccc2c1Cc1c-2[nH]c(=O)c2c1CCCC2` [Example 52, 3-(methylthio)-N-(5-oxo-2,3,4,5,6,11-hexahydro-1H-indeno[1,2-c]isoquinolin-10-yl)propanamide], the pIC50 against PARP-1 enzyme was 7.13. On PARP, the pEC50 is 7.26.

With `C[S+]([O-])CCC(=O)Nc1cccc2c1Cc1c-2[nH]c(=O)c2c1CCCC2` (stereo not shown) [Example 53, 3-(methylsulfinyl)-N-(5-oxo-2,3,4,5,6,11-hexahydro-1H-indeno[1,2-c]isoquinolin-10-yl)propanamide], at PARP-1 enzyme, the pIC50 was 7.05. Moreover, the pEC50 on PARP was 8.22. For `O=c1[nH]c2c(c3sccc13)Cc1c(CNC3CCCC3)cccc1-2` [Example 55, 9-((cyclopentylamino)methyl)-5,10-dihydro-4H-indeno[1,2-b]thieno[2,3-d]pyridin-4-one], at PARP-1 enzyme, the pIC50 is 7.39. In addition, the pEC50 on PARP is 7.47. For `CN1CCN(c2cccc3c2Cc2c-3[nH]c(=O)c3cccnc23)CC1` [Example 56, 10-(4-methylpiperazin-1-yl)-6,11-dihydro-5H-indeno[1,2-d][1,6]naphthyridin-5-one], the pIC50 at PARP-1 enzyme was 7.70. Further, on PARP, the pEC50 is 8.05.

With `CCCCN1CCN(c2cccc3c2Cc2c-3[nH]c(=O)c3cccnc23)CC1` [Example 58, 10-(4-butylpiperazin-1-yl)-6,11-dihydro-5H-indeno[1,2-h][1,6]naphthyridin-5-one], the pIC50 against PARP-1 enzyme was 7.59. Further, the pEC50 at PARP is 8.21.

As to `CCN1CCN(c2cccc3c2Cc2c-3[nH]c(=O)c3cccnc23)CC1` [Example 59, 10-(4-ethylpiperazin-1-yl)-6,11-dihydro-5H-indeno[1,2-h][1,6]naphthyridin-5-one], the pIC50 at PARP-1 enzyme is 7.91. Further, the pEC50 on PARP is 8.62. `CC(C)N1CCN(c2cccc3c2Cc2c-3[nH]c(=O)c3cccnc23)CC1` [Example 60, 10-(4-isopropylpiperazin-1-yl)-6,11-dihydro-5,1-indeno[1,2-h][1,6]naphthyridin-5-one]: the pIC50 against PARP-1 enzyme is 7.72. Moreover, on PARP, the pEC50 was 7.43. The compound `O=c1[nH]c2c(c3ncccc13)Cc1c-2cccc1N1CCN(CC2CC2)CC1` [Example 61, 10-(4-(cyclopropylmethyl)piperazin-1-yl)-6,11-dihydro-5H-indeno[1,2-h][1,6]naphthyridin-5-one] gave a pIC50 at PARP-1 enzyme of 7.55. The pEC50 on PARP was 7.34. Regarding `O=c1[nH]c2c(c3c1CCCC3)Cc1cc(CN3CCC(F)(F)CC3)ccc1-2` [Example 65, 9-((4,4-difluoropiperidin-1-yl)methyl)-3,4,6,11-tetrahydro-1H-indeno[1,2-c]isoquinolin-5(2H)-one], the pEC50 at PARP was 6.13. Regarding `O=c1[nH]c2c(c3c1CCCC3)Cc1cc(CN3CCC(F)CC3)ccc1-2` [Example 66, 9-((4-fluoropiperidin-1-yl)methyl)-3,4,6,11-tetrahydro-1H-indeno[1,2-c]isoquinolin-5(2H)-one], the negative logarithm of the EC50 (pEC50) on PARP is 7.43.
